Data from patent US20240270762A1, “PENICILLIN-BINDING PROTEIN INHIBITORS” (priority 2021, published 2024).
Values after ≈ are worked out from the molar mass of the structure shown.

Experiments:
A. baumannii CDC-0083 = assay: microbe, parasite or virus in culture; assay type: cell-based; details: Acinetobacter baumannii, CDC0083, read-out: MIC, A. baumannii CDC-0083
A. baumannii PBP1a = target: T1, A. baumannii PBP1a (Acinetobacter baumannii, UniProt A0ABX6CK30); assay: Bocillin-FL competition binding via gel filtration, A. baumannii PBP1a; details: competition binding assay using Bocillin-FL via gel filtration; read-out: A. baumannii PBP1a Potency
T1 sequence (A0ABX6CK30 1-851): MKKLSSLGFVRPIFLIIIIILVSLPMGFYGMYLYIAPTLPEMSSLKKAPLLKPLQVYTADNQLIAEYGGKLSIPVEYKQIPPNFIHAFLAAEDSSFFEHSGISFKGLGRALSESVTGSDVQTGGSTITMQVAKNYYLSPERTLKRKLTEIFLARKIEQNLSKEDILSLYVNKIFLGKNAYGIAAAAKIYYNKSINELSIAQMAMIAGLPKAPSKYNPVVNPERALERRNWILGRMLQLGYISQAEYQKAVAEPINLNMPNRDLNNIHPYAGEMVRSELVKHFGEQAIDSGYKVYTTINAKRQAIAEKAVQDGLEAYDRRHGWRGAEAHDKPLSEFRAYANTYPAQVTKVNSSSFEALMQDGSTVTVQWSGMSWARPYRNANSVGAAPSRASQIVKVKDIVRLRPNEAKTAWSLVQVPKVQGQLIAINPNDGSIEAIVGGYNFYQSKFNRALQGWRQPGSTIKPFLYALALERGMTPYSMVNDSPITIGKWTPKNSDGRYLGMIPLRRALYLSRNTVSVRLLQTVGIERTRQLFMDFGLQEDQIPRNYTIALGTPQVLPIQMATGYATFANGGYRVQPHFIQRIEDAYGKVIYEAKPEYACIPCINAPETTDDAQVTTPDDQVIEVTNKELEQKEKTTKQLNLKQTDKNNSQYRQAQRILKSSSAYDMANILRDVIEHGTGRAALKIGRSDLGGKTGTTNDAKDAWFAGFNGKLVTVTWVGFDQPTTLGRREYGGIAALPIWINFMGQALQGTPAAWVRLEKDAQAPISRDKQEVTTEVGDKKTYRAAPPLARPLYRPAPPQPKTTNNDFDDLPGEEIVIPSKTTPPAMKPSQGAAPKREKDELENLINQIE
Outline: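 Competitive equilibrium binding; reporter Bocillin-FL. PBP + inhibitor (titration) pre-incubated → Bocillin-FL, 15 min → gel filtration → fluorescence. EC50 from Hill fit of fraction bound vs [inhibitor].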

N. gonorrhoeae CDC-0197 = assay: Liquid broth MIC in Fastidious broth; details: Neisseria gonorrhoeae, CDC0197, read-out: Minimum Inhibitory Concentration (MIC), N. gonorrhoeae CDC-0197
Experimental: ATCC 49226, FA1090, MS11, WHO G, WHO L, and WHO M produce wild type or wild-type like PBP2. WHO K, WHO X, WHO Z, WHO Q, and CDC-0197 produce mosaic PBP2. Liquid broth-based assays were used for antibacterial testing of PBP inhibitors in Neisseria gonorrhoeae. Briefly, cryo-preserved bacterial cultures of clinical strains were streaked for isolation on Chocolate Agar (72 g/L (2×) GC Agar Base (BD #228950) and 2% (2×) Hemoglobin was autoclaved at 121° C. for 20 minutes to sterilize. Once cooled to ˜50° C. the 2×GC Agar Base and 2× Hemoglobin solutions are combined and 1% IsoVitaleX Enrichment (BD #211876) was added to the solution). Strains were incubated at 36° C. and 5% CO2 to allow growth of colonies, 24 hours before inoculum preparation. 2-fold serial dilutions of test compounds were conducted in a 96 well plate with a final volume of 75 μL per well at 2-fold the final desired concentration in Fastidious broth (Remel #R07664). For preparation of assay inoculum, a direct suspension was prepared by aseptically swabbing 10-15 colonies from agar plates into culture tubes containing 2 mL of fresh sterile saline. After the dilution plates were set up, direct suspensions were then diluted in a cuvette containing sterile saline and the optical density was measured at 600 nm. Inocula were diluted such that 75 μL of this culture in Fastidious broth results in a starting bacterial concentration of 5×10^5 CFU/mL when added to the dilution plates. The plates were incubated for ˜24 hours at 36° C. and 5% CO2.

P. aeruginosa ATCC 27853 = assay: microbe, parasite or virus in culture; assay type: cell-based; details: Pseudomonas aeruginosa, ATCC27853, read-out: Minimum inhibitory concentration, P. aeruginosa ATCC 27853
P. aeruginosa ATCC 35151 = assay: microbe, parasite or virus in culture; assay type: cell-based; details: Pseudomonas aeruginosa, ATCC35151, read-out: Minimum inhibitory concentration, P. aeruginosa ATCC 35151
A. baumannii CDC-0045 = assay: microbe, parasite or virus in culture; assay type: cell-based; details: Acinetobacter baumannii, CDC0045, read-out: MIC, A. baumannii CDC-0045
[1] = system: P. aeruginosa (ΔmexAB-oprM); assay: Broth microdilution MIC in iron-depleted CAMHB (IDM); assay type: cell-based; details: Pseudomonas aeruginosa; iron-depleted CAMHB (IDM); […]; read-out: Minimum inhibitory concentration, P. aeruginosa ΔmexAB-oprM
N. gonorrhoeae MS11 = assay: Liquid broth MIC in Fastidious broth; details: Neisseria gonorrhoeae, MS11, read-out: Minimum Inhibitory Concentration (MIC), N. gonorrhoeae MS11
P. aeruginosa CDC-0110 = assay: microbe, parasite or virus in culture; assay type: cell-based; details: Pseudomonas aeruginosa, CDC0110, read-out: Minimum inhibitory concentration, P. aeruginosa CDC-0110
A. baumannii ATCC 19606 = assay: microbe, parasite or virus in culture; assay type: cell-based; details: Acinetobacter baumannii, ATCC19606, read-out: MIC, A. baumannii ATCC 19606
P. aeruginosa CDC-0054 = assay: microbe, parasite or virus in culture; assay type: cell-based; details: Pseudomonas aeruginosa, CDC0054, read-out: Minimum inhibitory concentration, P. aeruginosa CDC-0054
[2] = system: B. thailandensis ATCC 700388; assay: microbe, parasite or virus in culture; assay type: cell-based; details: Burkholderia thailandensis, ATCC700388, read-out: Minimum inhibitory concentration (MIC), B. thailandensis ATCC 700388
[3] = system: B. humptydooensis ATCC BAA-2767; assay: microbe, parasite or virus in culture; assay type: cell-based; details: Burkholderia humptydooensis, ATCCBAA2767, read-out: Minimum inhibitory concentration (MIC), B. humptydooensis ATCC BAA-2767

| Structure (SMILES) | MIC (A. baumannii CDC-0083) | EC50 (A. baumannii PBP1a) | MIC (N. gonorrhoeae CDC-0197) | MIC (P. aeruginosa ATCC 27853) | MIC (P. aeruginosa ATCC 35151) | MIC (A. baumannii CDC-0045) | MIC [1] | MIC (N. gonorrhoeae MS11) | MIC (P. aeruginosa CDC-0110) | MIC (A. baumannii ATCC 19606) | MIC (P. aeruginosa CDC-0054) | MIC [2] | MIC [3] |
| --- | --- | --- | --- | --- | --- | --- | --- | --- | --- | --- | --- | --- | --- |
| O=C(NCCN1CCN(C(=O)NC(C(=O)N[C@H]2Cc3ccc(F)c(C(=O)O)c3OB2O)c2cc(F)c(O)c(O)c2Cl)C1=O)c1ccc(O)cc1 (stereo partly drawn) [Example 243, (3R)-3-(2-(2-chloro-5-fluoro-3,4-dihydroxyphenyl)-2-(3-(2-(4-hydroxybenzamido)ethyl)-2-oxoimidazolidine-1-carboxamido)acetamido)-7-fluoro-2-hydroxy-3,4-dihydro-2H-benzo[e][1,2]oxaborinine-8-carboxylic acid] | < 1 µg/mL | 10 to 50 µM | 16 to 32 µg/mL (≈ 22.3 to 44.6 µM) | < 1 µg/mL | < 1 µg/mL | < 1 µg/mL | < 1 µg/mL | 16 to 32 µg/mL (≈ 22.3 to 44.6 µM) | < 1 µg/mL | < 1 µg/mL | 2 to 4 µg/mL (≈ 2.79 to 5.57 µM) | 2 to 4 µg/mL (≈ 2.79 to 5.57 µM) | 2 to 4 µg/mL (≈ 2.79 to 5.57 µM) |
| CN(CCN1CCN(C(=O)N[C@@H](C(=O)N[C@H]2Cc3ccc(F)c(C(=O)O)c3OB2O)c2cc(F)c(O)c(O)c2Cl)C(=O)C1=O)Cc1cccnc1 [Example 201, (R)-3-((R)-2-(2-chloro-5-fluoro-3,4-dihydroxyphenyl)-2-(4-(2-(methyl(pyridin-3-ylmethyl)amino)ethyl)-2,3-dioxopiperazine-1-carboxamido)acetamido)-7-fluoro-2-hydroxy-3,4-dihydro-2H-benzo[e][1,2]oxaborinine-8-carboxylic acid] | < 1 µg/mL | 10 to 50 µM | > 64 µg/mL | < 1 µg/mL | < 1 µg/mL | < 1 µg/mL | < 1 µg/mL | 16 to 32 µg/mL (≈ 21.9 to 43.8 µM) | < 1 µg/mL | < 1 µg/mL | < 1 µg/mL | < 1 µg/mL | < 1 µg/mL |
| O=C(NCCN1CCN(C(=O)NC(C(=O)N[C@H]2Cc3ccc(F)c(C(=O)O)c3OB2O)c2cc(F)c(O)c(O)c2Cl)C1=O)c1cccc(O)c1 (stereo partly drawn) [Example 244, (3R)-3-(2-(2-chloro-5-fluoro-3,4-dihydroxyphenyl)-2-(3-(2-(3-hydroxybenzamido)ethyl)-2-oxoimidazolidine-1-carboxamido)acetamido)-7-fluoro-2-hydroxy-3,4-dihydro-2H-benzo[e][1,2]oxaborinine-8-carboxylic acid] | < 1 µg/mL | 10 to 50 µM | > 64 µg/mL | 2 to 4 µg/mL (≈ 2.79 to 5.57 µM) | < 1 µg/mL | 2 to 4 µg/mL (≈ 2.79 to 5.57 µM) | < 1 µg/mL | > 64 µg/mL | 2 to 4 µg/mL (≈ 2.79 to 5.57 µM) | < 1 µg/mL | 2 to 4 µg/mL (≈ 2.79 to 5.57 µM) | > 128 µg/mL | 2 to 4 µg/mL (≈ 2.79 to 5.57 µM) |
| O=C(CN1CCN(C(=O)NC(C(=O)N[C@H]2Cc3ccc(F)c(C(=O)O)c3OB2O)c2cc(F)c(O)c(O)c2Cl)C(=O)C1=O)Nc1ccc(O)cc1 (stereo partly drawn) [Example 230, (3R)-3-(2-(2-chloro-5-fluoro-3,4-dihydroxyphenyl)-2-(4-(2-((4-hydroxyphenyl)amino)-2-oxoethyl)-2,3-dioxopiperazine-1-carboxamido)acetamido)-7-fluoro-2-hydroxy-3,4-dihydro-2H-benzo[e][1,2]oxaborinine-8-carboxylic acid] | < 1 µg/mL | 10 to 50 µM | 16 to 32 µg/mL (≈ 21.9 to 43.7 µM) | < 1 µg/mL | < 1 µg/mL | < 1 µg/mL | < 1 µg/mL | 4 to 8 µg/mL (≈ 5.47 to 10.9 µM) | < 1 µg/mL | < 1 µg/mL | < 1 µg/mL | 2 to 4 µg/mL (≈ 2.73 to 5.47 µM) | 2 to 4 µg/mL (≈ 2.73 to 5.47 µM) |
